In one test the target is ErbB2 WT (Homo sapiens (Human), UniProt P04626). Nature of the test: ErbB Enzyme Assay (HTRF KinEASE-TK), Assay 2. Type of test: biochemical. The method, then: (§1) The kinases were incubated with 250 nM TK-substrate biotin (CisBio, part of cat #62TKOPEC) at 1 mM ATP along with test compounds in a buffer consisting of 25 mM HEPES, pH 7.4, 10 mM MgCl2, 0.01% Triton X-100, and 2% DMSO in a volume of 8 μL. […] After 30-minute incubation at 22° C., the reaction was quenched by adding 8 μL of quench solution containing 62.5 nM Sa-XL665 and 0.25×TK-Ab-Cryptate in HTRF detection buffer (all from CisBio, part of cat #62TKOPEC).
Sequence of ErbB2 WT (P04626 23-1255): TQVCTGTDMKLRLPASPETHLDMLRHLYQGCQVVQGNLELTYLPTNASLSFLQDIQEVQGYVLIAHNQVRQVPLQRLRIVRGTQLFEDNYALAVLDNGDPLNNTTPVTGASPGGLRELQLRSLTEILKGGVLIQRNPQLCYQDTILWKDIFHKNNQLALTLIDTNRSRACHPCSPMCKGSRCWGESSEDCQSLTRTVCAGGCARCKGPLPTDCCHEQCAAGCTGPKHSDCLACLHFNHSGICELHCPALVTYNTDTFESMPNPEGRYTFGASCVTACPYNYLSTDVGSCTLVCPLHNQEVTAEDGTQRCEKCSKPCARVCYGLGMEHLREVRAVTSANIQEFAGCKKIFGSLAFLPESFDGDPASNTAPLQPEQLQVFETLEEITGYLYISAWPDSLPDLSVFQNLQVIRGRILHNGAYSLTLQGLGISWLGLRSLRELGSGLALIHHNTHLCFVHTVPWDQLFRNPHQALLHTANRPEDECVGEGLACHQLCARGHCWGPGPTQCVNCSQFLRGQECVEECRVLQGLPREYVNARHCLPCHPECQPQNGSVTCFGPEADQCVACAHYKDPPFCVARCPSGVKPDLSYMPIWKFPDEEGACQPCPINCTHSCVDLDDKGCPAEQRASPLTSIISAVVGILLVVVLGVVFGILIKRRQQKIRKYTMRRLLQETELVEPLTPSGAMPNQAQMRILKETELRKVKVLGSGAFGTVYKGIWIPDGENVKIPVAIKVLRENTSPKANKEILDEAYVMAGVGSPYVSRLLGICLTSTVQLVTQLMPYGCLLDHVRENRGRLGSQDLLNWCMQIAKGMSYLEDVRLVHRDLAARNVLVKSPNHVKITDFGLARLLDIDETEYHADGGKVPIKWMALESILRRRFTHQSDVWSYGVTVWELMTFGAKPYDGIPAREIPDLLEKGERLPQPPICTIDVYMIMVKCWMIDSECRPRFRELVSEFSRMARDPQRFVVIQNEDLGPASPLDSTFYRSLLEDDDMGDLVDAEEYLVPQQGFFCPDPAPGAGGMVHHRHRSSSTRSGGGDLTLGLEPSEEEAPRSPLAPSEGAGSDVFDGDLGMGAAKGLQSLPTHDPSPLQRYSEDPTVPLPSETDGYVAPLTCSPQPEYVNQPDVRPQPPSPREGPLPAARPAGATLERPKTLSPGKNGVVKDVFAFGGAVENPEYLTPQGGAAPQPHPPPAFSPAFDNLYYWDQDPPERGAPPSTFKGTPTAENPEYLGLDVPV
(In general: TR-FRET usually uses a lanthanide donor and a delayed reading to cut background.)

The target of test [1] is ErbB2 with Exon 20 YVMA insertion (HER2-YVMA) (Homo sapiens (Human), UniProt P04626, INS775YVMA). The test can be described thus: Cellular Phosphorylation Assay, Assay 4 (constitutive ErbB2 phosphorylation, NIH 3T3 cells). It counts as cell-based. The method, then:
(§2) NIH 3T3 cells were engineered to express ErbB2 with Exon 20 YVMA insertion (HER2-YVMA (SEQ ID NO: 2); Assay 4) or EGFR wild type (EGFR WT; Assay 5) with constructs obtained from GenScript and grown in DMEM supplemented with 10% fetal bovine serum and 15 μg/ml blasticidin. […] Serially diluted compounds were added to the plates for 1 hour at 37° C./5% CO2. EGFR WT cells were stimulated with 100 ng/ml rEGF for an additional 10 minutes at 37° C./5% CO2.
(§3) After compound incubation, medium was removed from the cells, which were then fixed in 3.7% formaldehyde in PBS at room temperature for 20 minutes. Following a wash with PBS, cells were permeabilized with 100% methanol at room temperature for 10 minutes. Cells were then washed with PBS/0.05% Tween-20 and blocked with Odyssey blocking buffer (LI-COR Biosciences) for at least 1 hour at room temperature. Antibodies to phosphorylated ErbB2 (Y1196, Cell Signaling #6942) or phosphorylated EGFR (Y1068, Cell Signaling #3777) and GAPDH (Millipore #MAB374) were added to the cells in blocking buffer containing 0.05% azide and incubated overnight at 4° C. After washing with PBS/0.05% Tween-20, the cells were incubated with fluorescently labeled secondary anti-rabbit antibody (LiCOR, IRDye 800CW #926-32211) and anti-mouse antibody (Molecular Probes, Alexa Fluor 680 #A21058) for 1 hour at room temperature in the dark. Cells were then washed and analyzed for fluorescence at both wavelengths using the Odyssey Infrared Imaging System (LI-COR Biosciences). Phosphorylated ErbB2 and EGFR signal was normalized to GAPDH signal to generate curves and calculate IC50 values.

For another test, the target named is EGFR (Homo sapiens (Human), UniProt P00533). The test can be described thus: ErbB Enzyme Assay (HTRF KinEASE-TK), Assay 3. Type of test: biochemical. The method, then: as §1, with “#62TKOPEC). […] A 4-parameter logistic curve was fit to the POC values as a function of the concentration of compound, and the IC50 value was the point where the best-fit curve crossed 50 POC.” for “#62TKOPEC).”
Sequence of EGFR (P00533 25-1210): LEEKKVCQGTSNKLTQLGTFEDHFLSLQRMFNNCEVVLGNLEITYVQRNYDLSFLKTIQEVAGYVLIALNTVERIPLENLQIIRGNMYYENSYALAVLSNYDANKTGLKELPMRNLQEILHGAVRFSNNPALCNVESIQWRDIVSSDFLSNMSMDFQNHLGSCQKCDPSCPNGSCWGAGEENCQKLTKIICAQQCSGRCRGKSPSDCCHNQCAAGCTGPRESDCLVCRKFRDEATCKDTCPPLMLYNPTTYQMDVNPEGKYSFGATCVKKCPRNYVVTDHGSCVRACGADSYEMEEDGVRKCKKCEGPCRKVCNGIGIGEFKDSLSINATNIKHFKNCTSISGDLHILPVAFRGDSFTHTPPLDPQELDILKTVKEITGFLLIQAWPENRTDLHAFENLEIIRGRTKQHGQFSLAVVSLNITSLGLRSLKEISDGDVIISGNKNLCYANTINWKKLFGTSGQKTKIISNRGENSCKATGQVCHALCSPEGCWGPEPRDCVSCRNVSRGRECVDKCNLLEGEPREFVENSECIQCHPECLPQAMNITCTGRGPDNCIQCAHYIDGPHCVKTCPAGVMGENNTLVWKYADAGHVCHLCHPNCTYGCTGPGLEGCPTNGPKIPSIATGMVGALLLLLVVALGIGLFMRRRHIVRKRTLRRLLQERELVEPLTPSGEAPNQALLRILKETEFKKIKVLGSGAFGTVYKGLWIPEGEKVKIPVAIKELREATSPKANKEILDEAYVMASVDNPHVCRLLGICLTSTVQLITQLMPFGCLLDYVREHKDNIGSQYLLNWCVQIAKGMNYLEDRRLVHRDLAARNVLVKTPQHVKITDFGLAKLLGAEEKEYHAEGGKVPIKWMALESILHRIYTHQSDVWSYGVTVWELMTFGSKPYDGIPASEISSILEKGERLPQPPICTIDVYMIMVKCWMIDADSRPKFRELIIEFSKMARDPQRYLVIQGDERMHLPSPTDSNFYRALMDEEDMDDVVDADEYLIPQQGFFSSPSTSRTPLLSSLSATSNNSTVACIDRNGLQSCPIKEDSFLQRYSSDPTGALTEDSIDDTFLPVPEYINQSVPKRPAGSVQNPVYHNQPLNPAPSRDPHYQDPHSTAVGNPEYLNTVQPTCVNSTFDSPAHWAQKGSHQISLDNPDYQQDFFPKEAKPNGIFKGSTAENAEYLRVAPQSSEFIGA

In another test the target is EGFR wild type (EGFR WT) (Homo sapiens (Human), UniProt P00533). The test can be described thus: Cellular Phosphorylation Assay, Assay 5 (EGF-stimulated EGFR phosphorylation, NIH 3T3 cells). It counts as cell-based. The method, then: as §2, §3
Sequence of EGFR wild type (EGFR WT) (P00533 25-1210): as above
[2] abbreviates: cellular ErbB2 YVMA phosphorylation.
The mark [3] stands for this setting: cellular EGFR WT phosphorylation, EGF-stimulated.
Setting [4] is: EGF-stimulated EGFR WT phosphorylation.

Structures are written as SMILES. Bounds are passed on as bounds.

Sequence of ErbB2 with Exon 20 YVMA insertion (HER2-YVMA) (P04626 other isoform, or with tags, fused parts or gaps ins YVMA behind 775): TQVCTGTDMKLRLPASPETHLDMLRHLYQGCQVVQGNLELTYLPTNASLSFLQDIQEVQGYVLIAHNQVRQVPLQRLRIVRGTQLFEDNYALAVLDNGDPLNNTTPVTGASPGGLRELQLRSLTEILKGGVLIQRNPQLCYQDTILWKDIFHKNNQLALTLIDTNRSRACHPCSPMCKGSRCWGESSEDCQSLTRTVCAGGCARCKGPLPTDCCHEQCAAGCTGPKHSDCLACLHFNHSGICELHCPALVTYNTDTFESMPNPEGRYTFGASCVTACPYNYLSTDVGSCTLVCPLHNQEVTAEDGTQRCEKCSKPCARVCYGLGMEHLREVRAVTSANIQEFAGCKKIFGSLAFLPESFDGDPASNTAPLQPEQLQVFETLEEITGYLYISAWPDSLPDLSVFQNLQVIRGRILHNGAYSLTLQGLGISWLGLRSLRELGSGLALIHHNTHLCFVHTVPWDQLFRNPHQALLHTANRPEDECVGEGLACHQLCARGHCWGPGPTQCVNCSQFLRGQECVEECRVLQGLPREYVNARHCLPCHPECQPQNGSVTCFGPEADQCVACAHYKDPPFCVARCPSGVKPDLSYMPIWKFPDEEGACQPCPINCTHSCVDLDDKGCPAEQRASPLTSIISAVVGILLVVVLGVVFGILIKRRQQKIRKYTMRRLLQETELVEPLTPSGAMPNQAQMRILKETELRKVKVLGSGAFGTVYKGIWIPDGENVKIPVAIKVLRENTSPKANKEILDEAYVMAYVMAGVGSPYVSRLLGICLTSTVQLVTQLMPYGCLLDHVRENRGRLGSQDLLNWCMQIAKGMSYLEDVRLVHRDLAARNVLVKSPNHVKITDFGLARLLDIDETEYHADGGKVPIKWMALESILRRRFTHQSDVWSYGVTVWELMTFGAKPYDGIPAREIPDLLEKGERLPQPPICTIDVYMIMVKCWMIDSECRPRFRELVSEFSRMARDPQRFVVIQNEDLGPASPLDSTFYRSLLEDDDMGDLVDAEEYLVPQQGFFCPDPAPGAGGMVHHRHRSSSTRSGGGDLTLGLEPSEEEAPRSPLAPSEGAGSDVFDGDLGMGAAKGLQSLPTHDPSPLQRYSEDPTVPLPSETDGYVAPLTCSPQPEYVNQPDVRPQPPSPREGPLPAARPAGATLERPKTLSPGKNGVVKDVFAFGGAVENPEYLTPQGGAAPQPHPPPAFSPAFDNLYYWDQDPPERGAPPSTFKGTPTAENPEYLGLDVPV

One may read the IC50 as the concentration that gives 50% inhibition. Higher therefore signals weaker potency. For the compound `C=CC(=O)N1C[C@@H](c2ccc3ncnc(Nc4cc(C)c(Oc5ccn6ncnc6c5)cc4F)c3n2)C[C@@H]1C` (mixture of isomers) [Example 384], the half-maximal inhibitory concentration (IC50) was 101 nM on ErbB2 WT (ErbB2 WT enzyme assay), 58.3 nM in test [1] (setting [2]), 3000 nM on EGFR (EGFR enzyme assay) and no less than 5000 nM against EGFR wild type (EGFR WT) (setting [3]).

For `C=CC(=O)N1C[C@H](c2ccc3ncnc(Nc4cc(C)c(Oc5ccn6ncnc6c5)cc4F)c3n2)C[C@H]1C` (mixture of isomers) [Example 386], the IC50 on ErbB2 WT (ErbB2 WT enzyme assay) was 220 nM; in test [1] (setting [2]) it was 235 nM; on EGFR (EGFR enzyme assay) it was no less than 10000 nM; against EGFR wild type (EGFR WT) (setting [3]), no less than 5000 nM.

With `C=CC(=O)N1C[C@H](c2ccc3ncnc(Nc4ccc(Oc5ccn6ncnc6c5)c(C)c4F)c3n2)C[C@H]1C` (mixture of isomers) [Example 387], the concentration for half-maximal inhibition (IC50) amounted to 52.1 nM on ErbB2 WT (ErbB2 WT enzyme assay), 60.8 nM in test [1] (setting [2]), 2200 nM against EGFR (EGFR enzyme assay) and 4280 nM against EGFR wild type (EGFR WT) (setting [3]).

`C=CC(=O)N1[C@@H]2CC[C@H]1CC(c1ccc3ncnc(Nc4cc(C)c(Oc5ccc6c(c5)ncn6C)cc4F)c3n1)C2` (mixture of isomers) [Example 130, rac-1-((1R,5S)-3-(4-((2-fluoro-5-methyl-4-((1-methyl-1H-benzo[d]imidazol-5-yl)oxy)phenyl)amino)pyrido[3,2-d]pyrimidin-6-yl)-8-azabicyclo[3.2.1]octan-8-yl)prop-2-en-1-one]: the IC50 against ErbB2 WT (ErbB2 WT enzyme) was 135 nM; in test [1] (ErbB2 YVMA phosphorylation), 19.9 nM; at EGFR (EGFR enzyme) it was 7340 nM; against EGFR wild type (EGFR WT) (setting [4]) it was no less than 5000 nM.

For `C=CC(=O)N1CC[C@H]2C[C@@H](c3ccc4ncnc(Nc5ccc(Oc6ccc7c(c6)ncn7C)c(C)c5F)c4n3)C[C@H]21` (racemic) [Example 133, rac-1-((3aR,5R,6aR)-5-(4-((2-fluoro-3-methyl-4-((1-methyl-1H-benzo[d]imidazol-5-yl)oxy)phenyl)amino)pyrido[3,2-d]pyrimidin-6-yl)hexahydrocyclopenta[b]pyrrol-1(2H)-yl)prop-2-en-1-one], the IC50 was 41.5 nM against ErbB2 WT (ErbB2 WT enzyme), 34 nM in test [1] (ErbB2 YVMA phosphorylation), 3170 nM on EGFR (EGFR enzyme) and 3780 nM against EGFR wild type (EGFR WT) (setting [4]).

Consider `C=CC(=O)N1CC[C@@H]2[C@H](c3ccc4ncnc(Nc5cc(C)c(Oc6ccc7c(c6)ncn7C)cc5F)c4n3)CC[C@@H]21` (racemic) [Example 134, rac-1-((3aR,4R,6aS)-4-(4-((2-fluoro-5-methyl-4-((1-methyl-1H-benzo[d]imidazol-5-yl)oxy)phenyl)amino)pyrido[3,2-d]pyrimidin-6-yl)hexahydrocyclopenta[b]pyrrol-1(2H)-yl)prop-2-en-1-one], for which the IC50 is 86.3 nM on ErbB2 WT (ErbB2 WT enzyme), 222 nM in test [1] (ErbB2 YVMA phosphorylation), no less than 10000 nM against EGFR (EGFR enzyme) and no less than 5000 nM at EGFR wild type (EGFR WT) (setting [4]).

As for `C=CC(=O)N1CCC[C@@H](c2ccc3ncnc(Nc4cc(C)c(Oc5ccc6c(c5)ncn6C)cc4F)c3n2)CC1` (racemic) [Example 135, rac-(R)-1-(4-(4-((2-fluoro-5-methyl-4-((1-methyl-1H-benzo[d]imidazol-5-yl)oxy)phenyl)amino)pyrido[3,2-d]pyrimidin-6-yl)azepan-1-yl)prop-2-en-1-one], the IC50 at ErbB2 WT (ErbB2 WT enzyme) is 121 nM; in test [1] (ErbB2 YVMA phosphorylation) it was 44.5 nM; against EGFR (EGFR enzyme), no less than 10000 nM; against EGFR wild type (EGFR WT) (setting [4]), no less than 5000 nM.

Consider `C=CC(=O)N1CC[C@H](c2ccc3ncnc(Nc4cc(C)c(Oc5ccc6c(c5)ncn6C)cc4F)c3n2)CC(C)(C)C1` (racemic) [Example 139, rac-(R)-1-(5-(4-((2-fluoro-5-methyl-4-((1-methyl-1H-benzo[d]imidazol-5-yl)oxy)phenyl)amino)pyrido[3,2-d]pyrimidin-6-yl)-3,3-dimethylazepan-1-yl)prop-2-en-1-one], for which the IC50 is no less than 10000 nM on ErbB2 WT (ErbB2 WT enzyme), 32.5 nM in test [1] (ErbB2 YVMA phosphorylation), no less than 10000 nM against EGFR (EGFR enzyme) and no less than 5000 nM on EGFR wild type (EGFR WT) (setting [4]).

Regarding `C=CC(=O)N1CC[C@@H]2[C@H](c3ccc4ncnc(Nc5ccc(Oc6ccc7c(c6)ncn7C)c(C)c5F)c4n3)CC[C@@H]21` (racemic) [Example 142, rac-1-((3aR,4R,6aS)-4-(4-((2-fluoro-3-methyl-4-((1-methyl-1H-benzo[d]imidazol-5-yl)oxy)phenyl)amino)pyrido[3,2-d]pyrimidin-6-yl)hexahydrocyclopenta[b]pyrrol-1(2H)-yl)prop-2-en-1-one], the IC50 is 49.9 nM at ErbB2 WT (ErbB2 WT enzyme), 79.5 nM in test [1] (ErbB2 YVMA phosphorylation), no less than 10000 nM on EGFR (EGFR enzyme) and no less than 5000 nM at EGFR wild type (EGFR WT) (setting [4]).

`CC#CC(=O)Nc1ccc2ncnc(Nc3ccc(Oc4ccc5c(c4)ncn5C)c(C)c3)c2n1` [Example 19, N-(4-((3-methyl-4-((1-methyl-1H-benzo[d]imidazol-5-yl)oxy)phenyl)amino)pyrido[3,2-d]pyrimidin-6-yl)but-2-ynamide]: the IC50 at ErbB2 WT (ErbB2 WT enzyme) was 17.8 nM; in test [1] (ErbB2 YVMA phosphorylation) it was 87.8 nM; on EGFR (EGFR enzyme) it was 205 nM.

For the compound `C=CS(=O)(=O)Nc1ccc2ncnc(Nc3ccc(Oc4ccc5c(c4)ncn5C)c(C)c3)c2n1` [Example 20, N-(4-((3-methyl-4-((1-methyl-1H-benzo[d]imidazol-5-yl)oxy)phenyl)amino)pyrido[3,2-d]pyrimidin-6-yl)ethenesulfonamide], the half-inhibitory concentration (IC50) against ErbB2 WT (ErbB2 WT enzyme) stood at 47.9 nM; in test [1] (ErbB2 YVMA phosphorylation), 1740 nM; against EGFR (EGFR enzyme) it was 340 nM.

With `C=CS(=O)(=O)N(C)c1ccc2ncnc(Nc3ccc(Oc4ccc5c(c4)ncn5C)c(C)c3)c2n1` [Example 21, N-methyl-N-(4-((3-methyl-4-((1-methyl-1H-benzo[d]imidazol-5-yl)oxy)phenyl)amino)pyrido[3,2-d]pyrimidin-6-yl)ethenesulfonamide], the IC50 on ErbB2 WT (ErbB2 WT enzyme) came to 83.2 nM; in test [1] (ErbB2 YVMA phosphorylation), 250 nM; at EGFR (EGFR enzyme), 466 nM.

In the case of `CNC(=O)/C=C/c1ccc2ncnc(Nc3ccc(Oc4ccc5c(c4)ncn5C)c(C)c3)c2n1` [Example 22, (E)-N-methyl-3-(4-((3-methyl-4-((1-methyl-1H-benzo[d]imidazol-5-yl)oxy)phenyl)amino)pyrido[3,2-d]pyrimidin-6-yl)acrylamide], the figures for the IC50 (on ErbB2 WT (ErbB2 WT enzyme); in test [1] (ErbB2 YVMA phosphorylation); at EGFR (EGFR enzyme)) were 167 nM, 80.6 nM and no less than 10000 nM, respectively.

As to `C=CC(=O)N(C)c1ccc2ncnc(Nc3ccc(Oc4ccc5c(c4)ncn5C)c(C)c3)c2n1` [Example 23, N-methyl-N-(4-((3-methyl-4-((1-methyl-1H-benzo[d]imidazol-5-yl)oxy)phenyl)amino)pyrido[3,2-d]pyrimidin-6-yl)acrylamide], the values for the IC50 (against ErbB2 WT (ErbB2 WT enzyme); in test [1] (ErbB2 YVMA phosphorylation); on EGFR (EGFR enzyme)) were 72.7 nM, 63.9 nM and 709 nM, respectively.

Turning to `Cc1c(Oc2ccn3ncnc3c2)ccc(Nc2ncnc3ccc(N4CCN(C(=O)C56CC5C6)C(C)(C)C4)nc23)c1F` (stereo not drawn) [Example 186, (4-(4-((4-([1,2,4]triazolo[1,5-a]pyridin-7-yloxy)-2-fluoro-3-methylphenyl)amino)pyrido[3,2-d]pyrimidin-6-yl)-2,2-dimethylpiperazin-1-yl)(bicyclo[1.1.0]butan-1-yl)methanone], the results for the 50% inhibitory concentration (IC50) (against ErbB2 WT (ErbB2 WT enzyme); in test [1] (ErbB2 YVMA phosphorylation); against EGFR wild type (EGFR WT) (setting [4])) were 69.1 nM, 408 nM and no less than 5000 nM, respectively.

Turning to `CC#CC(=O)N1C[C@@H]2CC[C@H]1CN2c1ccc2ncnc(Nc3ccc(Oc4ccn5ncnc5c4)c(C)c3F)c2n1` [Example 329], the results for the half-inhibitory concentration (IC50) (at ErbB2 WT (ErbB2 WT enzyme assay); in test [1] (setting [2]); against EGFR wild type (EGFR WT) (setting [3])) were 103 nM, 73.7 nM and 1420 nM, respectively.

The values above are taken from patent US12447153B2, “HER2 mutation inhibitors” (Array BioPharma Inc., priority 2021, dated 2025).
